# According to ChEMBL document CHEMBL4145610, “Total Syntheses of Lobaric Acid and Its Derivatives from the Antarctic Lichen Stereocaulon alpinum” (J Nat Prod, 2018):
# Target: T1, Tyrosine-protein phosphatase non-receptor type 1 (Homo sapiens, UniProt P18031)
# T1 sequence (P18031 whole entry): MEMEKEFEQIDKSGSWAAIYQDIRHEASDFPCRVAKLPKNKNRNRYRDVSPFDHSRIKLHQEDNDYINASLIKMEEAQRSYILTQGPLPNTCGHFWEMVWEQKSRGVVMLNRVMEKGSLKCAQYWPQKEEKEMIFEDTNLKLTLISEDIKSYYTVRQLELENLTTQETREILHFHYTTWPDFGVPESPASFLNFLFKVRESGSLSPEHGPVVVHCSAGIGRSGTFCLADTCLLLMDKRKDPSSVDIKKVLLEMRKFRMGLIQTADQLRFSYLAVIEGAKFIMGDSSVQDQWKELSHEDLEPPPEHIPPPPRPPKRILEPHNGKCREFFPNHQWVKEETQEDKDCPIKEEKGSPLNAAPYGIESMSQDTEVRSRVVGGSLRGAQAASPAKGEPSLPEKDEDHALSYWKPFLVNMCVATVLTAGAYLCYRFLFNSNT
# Experiment: Inhibition of PTP1B (1 to 298 residues) (unknown origin) using p-nitrophenylphosphate as substrate after 30 mins
row,Compound,IC50
1,CCC/C=C1\OC(=O)c2c(Oc3c(O)cc(O)c(C(=O)O)c3CCCCC)cc(OC)cc21,500 nM
2,CCCCCc1c(Oc2cc(OC)cc3c2C(=O)OC3(O)CCCC)c(O)cc(O)c1C(=O)O (stereo not given),900 nM
3,CCCCCc1c(Oc2cc(OC)cc3c2C(=O)OC3(CCCC)OC)c(O)cc(O)c1C(=O)O (stereo not given),1500 nM
4,CCCCCc1c2c(cc(O)c1C(=O)O)OC(=O)c1c(cc(OC)cc1C(=O)CCCC)O2 [LOBARIC ACID],800 nM
5,CCCCCc1cc(O)cc(O)c1Oc1cc(OC)cc2c1C(=O)OC2(O)CCCC (stereo not given) [SAKISACAULON A],1700 nM
